Test results taken from ChEMBL document CHEMBL1201862, “PubChem BioAssay data set” (2004).
Active and inactive are the calls of the source.

Tests used:
Estrogen receptor beta = Estrogen receptor beta (Homo sapiens, UniProt Q92731);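 note: recombinant ER-beta bound to coactivator SRC1 peptide in presence of estradiol agonist; inhibitors block coactivator peptide binding and lower the FRET signal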
[1] = target: T1, High affinity choline transporter 1 (Homo sapiens, UniProt Q9GZV3); experiment: human choline transporter blockers, potency – cell-based, 5-point CRC, membrane potential dye, dose response (AID 504840); assay type: functional
T1 sequence (Q9GZV3 whole entry): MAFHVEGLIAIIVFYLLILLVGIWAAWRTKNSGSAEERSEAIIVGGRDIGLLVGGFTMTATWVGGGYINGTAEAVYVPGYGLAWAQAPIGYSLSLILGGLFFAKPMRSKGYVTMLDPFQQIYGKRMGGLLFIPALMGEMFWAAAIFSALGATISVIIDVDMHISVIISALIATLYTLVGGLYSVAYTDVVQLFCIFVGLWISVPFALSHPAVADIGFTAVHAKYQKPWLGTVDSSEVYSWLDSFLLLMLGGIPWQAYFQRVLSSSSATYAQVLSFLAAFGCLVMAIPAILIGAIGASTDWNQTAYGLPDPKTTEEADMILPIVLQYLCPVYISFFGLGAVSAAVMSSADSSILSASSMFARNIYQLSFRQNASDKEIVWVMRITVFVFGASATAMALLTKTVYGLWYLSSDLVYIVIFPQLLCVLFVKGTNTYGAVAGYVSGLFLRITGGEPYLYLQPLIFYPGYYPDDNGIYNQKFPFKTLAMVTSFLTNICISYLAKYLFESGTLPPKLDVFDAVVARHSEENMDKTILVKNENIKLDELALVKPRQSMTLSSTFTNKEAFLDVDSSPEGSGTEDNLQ

Vero = experiment: cells; assay type: functional; conditions: Chlorocebus sabaeus
[2] = viability loss in HeLa cells – cytotoxicity control for MgcRacGAP inhibitor project, dose response (AID 624300); assay type: functional
[3] = viability of HCT116 lacking mutant beta-catenin – cell-based, human colon tumor, dose response (AID 1045); assay type: functional;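 note: HCT116 colon tumor cells with beta catenin knocked out; cells exposed to compound for 60 hours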
[4] = viability of PTEN-deleted HCT116 cells – cell-based, HCT116 PTEN knockout, dose response (AID 1047); assay type: functional;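 note: HCT116 colon tumor cells with PTEN knocked out; cells exposed to compound for 60 hours before readout; potency for loss of cell viability measured by luminescence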
SN12K1 = experiment: cells; assay type: functional; conditions: Homo sapiens
P388/ADR = experiment: cells; assay type: functional; conditions: Mus musculus
[5] = target: T2, Rac GTPase-activating protein 1 (Homo sapiens, UniProt Q9H0H5); experiment: blockers of MgcRacGAP-driven Rac1 GTP hydrolysis – biochemical, ADP Hunter fluorescence, primary and confirmatory, confirmation (AID 624330); assay type: functional
T2 sequence (Q9H0H5 whole entry): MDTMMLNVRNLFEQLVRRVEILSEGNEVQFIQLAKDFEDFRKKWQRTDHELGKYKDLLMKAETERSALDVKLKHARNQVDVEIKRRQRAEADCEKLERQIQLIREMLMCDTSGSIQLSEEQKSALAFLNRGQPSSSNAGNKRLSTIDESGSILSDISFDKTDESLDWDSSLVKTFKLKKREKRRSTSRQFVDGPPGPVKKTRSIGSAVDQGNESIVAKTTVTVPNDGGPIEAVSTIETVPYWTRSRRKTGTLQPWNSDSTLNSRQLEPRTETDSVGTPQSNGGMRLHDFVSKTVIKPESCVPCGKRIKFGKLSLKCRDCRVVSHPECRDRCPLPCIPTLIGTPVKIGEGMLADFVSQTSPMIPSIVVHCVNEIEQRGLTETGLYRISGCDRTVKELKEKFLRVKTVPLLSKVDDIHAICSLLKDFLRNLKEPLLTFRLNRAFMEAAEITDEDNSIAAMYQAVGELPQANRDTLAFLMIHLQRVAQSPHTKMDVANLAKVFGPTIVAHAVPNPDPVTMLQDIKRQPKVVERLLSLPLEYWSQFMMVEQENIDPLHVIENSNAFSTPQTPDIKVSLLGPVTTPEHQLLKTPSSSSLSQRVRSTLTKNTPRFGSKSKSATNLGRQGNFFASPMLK

Cytochrome P450 1A2 = target: T3, Cytochrome P450 1A2 (Homo sapiens, UniProt P05177);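 note: PubChem cytochrome P450 panel assay, CYP1A2 panel member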
T3 sequence (P05177 whole entry): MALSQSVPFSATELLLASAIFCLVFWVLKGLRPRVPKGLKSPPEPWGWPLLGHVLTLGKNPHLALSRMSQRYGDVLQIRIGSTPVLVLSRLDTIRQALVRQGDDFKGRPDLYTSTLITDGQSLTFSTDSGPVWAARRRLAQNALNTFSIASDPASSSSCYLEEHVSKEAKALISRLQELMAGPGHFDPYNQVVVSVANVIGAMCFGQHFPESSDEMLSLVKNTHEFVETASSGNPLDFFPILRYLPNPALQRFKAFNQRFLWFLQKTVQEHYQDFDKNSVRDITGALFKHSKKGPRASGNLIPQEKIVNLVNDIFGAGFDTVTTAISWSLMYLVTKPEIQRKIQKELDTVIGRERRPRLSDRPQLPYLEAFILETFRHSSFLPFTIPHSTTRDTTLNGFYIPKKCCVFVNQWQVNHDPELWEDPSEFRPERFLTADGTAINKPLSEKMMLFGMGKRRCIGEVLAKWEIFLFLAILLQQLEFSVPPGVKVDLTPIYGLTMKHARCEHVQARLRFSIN

Cytochrome P450 2C19 = Cytochrome P450 2C19 (Homo sapiens, UniProt P33261); experiment: Cytochrome panel assay with activity outcomes. Panel member name: p450-cyp2c19 Compounds with AC50 equal or less than 10 uM are considered active; assay type: functional; conditions: read-out: AC50
Chain of Cytochrome P450 2C19 (P33261 whole entry): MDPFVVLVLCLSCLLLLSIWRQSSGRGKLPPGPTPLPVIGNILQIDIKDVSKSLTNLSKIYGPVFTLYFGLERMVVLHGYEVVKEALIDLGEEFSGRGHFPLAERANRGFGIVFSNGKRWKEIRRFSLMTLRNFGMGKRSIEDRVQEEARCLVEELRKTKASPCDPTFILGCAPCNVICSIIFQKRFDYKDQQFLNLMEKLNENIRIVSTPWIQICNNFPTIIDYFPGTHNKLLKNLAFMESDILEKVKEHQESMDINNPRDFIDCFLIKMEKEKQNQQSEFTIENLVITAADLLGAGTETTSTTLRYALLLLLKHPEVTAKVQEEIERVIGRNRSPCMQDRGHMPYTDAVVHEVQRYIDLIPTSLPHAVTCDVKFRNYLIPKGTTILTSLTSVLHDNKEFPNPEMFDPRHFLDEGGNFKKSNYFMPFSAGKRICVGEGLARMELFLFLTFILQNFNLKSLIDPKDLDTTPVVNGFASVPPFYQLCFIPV

Genome polyprotein = Genome polyprotein (dengue virus type 2, UniProt P29990); experiment: flavivirus cap methylation enzyme inhibition – biochemical, confirmation dose response, primary screen (AID 588689); assay type: functional
Chain of Genome polyprotein (P29990 2492-3391 limits assumed): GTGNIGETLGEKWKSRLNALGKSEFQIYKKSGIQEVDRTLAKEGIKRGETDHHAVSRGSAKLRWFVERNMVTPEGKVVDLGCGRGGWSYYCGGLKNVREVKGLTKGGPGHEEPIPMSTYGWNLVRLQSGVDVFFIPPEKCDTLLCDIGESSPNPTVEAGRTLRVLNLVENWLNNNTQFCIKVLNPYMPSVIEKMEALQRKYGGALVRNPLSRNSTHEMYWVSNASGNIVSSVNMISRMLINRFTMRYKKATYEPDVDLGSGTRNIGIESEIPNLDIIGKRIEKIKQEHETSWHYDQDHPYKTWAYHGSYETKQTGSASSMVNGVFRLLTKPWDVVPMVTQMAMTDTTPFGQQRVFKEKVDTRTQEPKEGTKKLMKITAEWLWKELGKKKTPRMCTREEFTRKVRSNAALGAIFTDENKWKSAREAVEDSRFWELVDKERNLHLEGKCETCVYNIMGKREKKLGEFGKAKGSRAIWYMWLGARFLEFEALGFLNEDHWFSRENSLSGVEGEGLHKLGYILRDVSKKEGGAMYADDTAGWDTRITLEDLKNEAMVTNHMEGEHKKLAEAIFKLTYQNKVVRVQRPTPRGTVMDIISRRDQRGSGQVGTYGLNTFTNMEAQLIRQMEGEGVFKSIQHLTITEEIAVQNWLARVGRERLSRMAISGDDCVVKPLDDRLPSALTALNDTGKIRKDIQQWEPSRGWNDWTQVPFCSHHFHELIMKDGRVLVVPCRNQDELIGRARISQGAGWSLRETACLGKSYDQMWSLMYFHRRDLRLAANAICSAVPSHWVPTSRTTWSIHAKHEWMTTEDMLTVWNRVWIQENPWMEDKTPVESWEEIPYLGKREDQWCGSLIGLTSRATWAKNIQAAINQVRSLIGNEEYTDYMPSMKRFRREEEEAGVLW

[6] = target: Glyceraldehyde-3-phosphate dehydrogenase (Homo sapiens, UniProt P04406)
Chain of Glyceraldehyde-3-phosphate dehydrogenase (P04406 whole entry, the tested form may be a part): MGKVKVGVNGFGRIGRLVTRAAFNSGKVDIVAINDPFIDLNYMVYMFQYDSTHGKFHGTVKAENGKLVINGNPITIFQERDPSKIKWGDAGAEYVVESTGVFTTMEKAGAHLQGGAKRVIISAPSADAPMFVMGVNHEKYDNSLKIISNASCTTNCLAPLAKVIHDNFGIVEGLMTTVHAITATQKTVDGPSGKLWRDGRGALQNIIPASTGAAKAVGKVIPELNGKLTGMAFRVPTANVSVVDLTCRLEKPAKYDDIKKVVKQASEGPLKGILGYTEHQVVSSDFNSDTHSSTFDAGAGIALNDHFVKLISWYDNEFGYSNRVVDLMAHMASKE

[7] = HIV-1 AD8 envelope cell-cell fusion blockers – cherry-pick, dose response (AID 652062); assay type: functional, cell-based;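 note: luciferase signal from cell-cell fusion driven by HIV-1 clade B AD8 Env; potency is for inhibitors of fusion seen as a drop in luminescence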
[8] = Luminescence Cell-Based Dose Response HTS to Identify Inhibitors of 5'UTR Stem-Loop Driven Prion Protein mRNA Translation in H4 Neuroglioblastoma Cells. [Related pubchem assays: 1827 (Project Summary), 1813 (Primary HTS)]; assay type: functional
[9] = A549 cell cytotoxicity, dose response, cytotoxicity control, plate reader, cherry-pick, antagonist series (AID 743412); assay type: functional, cell-based
[10] = microbe, parasite or virus in culture; assay type: functional; conditions: Mycobacterium tuberculosis
[11] = toxicity toward HepG2 liver cells – cell-based, plate reader, cherry-pick, antagonist series, cytotoxicity control, dose response (AID 743416); assay type: functional
[12] = blockade of melanocortin 4 receptor signaling – cell-based, plate reader, cherry pick, counter-screen for LGR2 antagonist project, dose response (AID 743444); assay type: functional;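 note: transfected HEK 293 cells stimulated with alpha-MSH peptide; potency of inhibitors of the alpha-MSH evoked signal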
[13] = blockers of bursicon-stimulated LGR2 cAMP reporter – cell-based, HEK293, CRE-luciferase reporter, cherry pick, set 2, dose response (AID 743343); assay type: functional;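 note: transfected cells were stimulated with diluted bursicon conditioned medium after compound addition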
[14] = alpha-synuclein stem-loop luciferase translation blockers – H4 neuroglioma cells, luminescence, confirmation (AID 1988); assay type: functional, cell-based

Chain of Estrogen receptor beta (Q92731 whole entry): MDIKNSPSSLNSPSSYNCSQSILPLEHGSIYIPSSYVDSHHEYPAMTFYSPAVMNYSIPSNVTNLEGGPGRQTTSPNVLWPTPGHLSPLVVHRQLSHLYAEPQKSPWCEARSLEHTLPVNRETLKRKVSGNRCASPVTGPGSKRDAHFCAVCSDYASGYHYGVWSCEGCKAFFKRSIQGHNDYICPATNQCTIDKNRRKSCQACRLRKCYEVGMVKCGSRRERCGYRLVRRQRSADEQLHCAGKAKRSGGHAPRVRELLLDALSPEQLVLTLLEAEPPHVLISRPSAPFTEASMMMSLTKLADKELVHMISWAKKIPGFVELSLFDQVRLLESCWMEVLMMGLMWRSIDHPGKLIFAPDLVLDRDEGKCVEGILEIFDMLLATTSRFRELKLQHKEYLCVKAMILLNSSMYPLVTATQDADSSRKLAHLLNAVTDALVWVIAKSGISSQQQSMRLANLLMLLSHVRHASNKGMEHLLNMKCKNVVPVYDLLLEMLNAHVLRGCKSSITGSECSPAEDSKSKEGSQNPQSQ

Question: For `CCCNCC1COc2ccccc2O1` (stereo unspecified), which IC50 (Estrogen receptor beta) is on record?
Answer: Its IC50 is 4.1 µM (active).

Question: For `O=C(OCc1nc(O)c2sccc2n1)c1ccc(Cl)s1`, which IC50 [1] is on record?
Answer: The IC50 was 12.6 µM (active).

Question: With `COc1cc(OC)c(NC(=O)C(=O)CC(=O)c2ccc(C)cc2C)cc1Cl` as the compound, how does the CC50 (Vero) read?
Answer: Its CC50 is 9.4 µM (active).

Question: Which CC50 [2] does the source give for `O=C(/C=C/c1ccc([N+](=O)[O-])cc1)/C=C/c1ccco1` here?
Answer: The CC50 was 100 µM (active).

Question: Which IC50 (Estrogen receptor beta) does the source give for `COCCCNc1nc2c([nH]1)c(=O)[nH]c(=O)n2C` here?
Answer: Its IC50 is > 50 µM (not active).

Question: Which results are given for `CN1C(=O)/C(=C2\SC(N)=NC2=O)c2ccccc21`?
Answer: EC50 [3]: 44.1 µM (active); EC50 [4]: 33.2 µM (active)

Question: What does the source list for `COC1C(OC(=O)/C=C/C=C/C=C/C=C/C(=O)O)CCC2(CO2)C1C1(C)OC1CC=C(C)C` (stereo unspecified)?
Answer: GI50 (SN12K1): 16.1 µM (inactive); GI50 (P388/ADR): 13.2 µM (inactive)

Question: Which results are given for `CN(C)CCCN1c2ccc(O)cc2Sc2ccc(Cl)cc21` [7-HYDROXYCHLORPROMAZINE]?
Answer: CC50 [2]: 84.5 µM (active); IC50 [5]: 11.6 µM (active); AC50 (Cytochrome P450 1A2): 0.631 µM (inconclusive); AC50 (Cytochrome P450 2C19): 0.794 µM (inconclusive)

Question: For `CC(=O)n1cc(C=C2C(=O)NC(=O)NC2=O)c2ccccc21`, which IC50 (Genome polyprotein) is on record?
Answer: Its IC50 is 42.8 µM (active).

Question: For `COc1ccc(OC)c(S(=O)(=O)Nc2cccnc2)c1`, which IC50 [6] is on record?
Answer: Its IC50 is > 100 µM (not active).

Question: Which AC50 [7] does the source give for `O=C(C[C@@H]1C[C@H]2c3cc(NC(=O)Nc4ccccc4)ccc3O[C@H]2[C@H](CO)O1)NCc1cccnc1` here?
Answer: The AC50 was 1.64 µM (active).

Question: Which IC50 (Estrogen receptor beta) does the source give for `CCOC(=O)CN1CC23C=CC(O2)C(C(=O)Nc2cc(OC)ccc2OC)C3C1=O` (stereo unspecified) here?
Answer: Its IC50 is > 50 µM (not active).

Question: For `COc1cccc(/C=C2/C(=O)NN(c3ccccc3)C2=O)c1`, which IC50 (Genome polyprotein) is on record?
Answer: Its IC50 is 45.8 µM (active).

Question: For `COc1ccc(-c2cc3nc(CCl)nc(O)c3s2)cc1`, which EC50 [8] is on record?
Answer: The EC50 was 11.8 µM (active).

Question: And the AC50 [9]?
Answer: The AC50 was 16.8 µM (active).

Question: What about the CC50 [10] of the same compound?
Answer: Its CC50 is 6.88 µM (active).

Question: What about the AC50 [11] of the same compound?
Answer: Its AC50 is 17.1 µM (active).

Question: And the AC50 [12]?
Answer: The AC50 was 8.71 µM (active).

Question: What about the AC50 [13] of the same compound?
Answer: The AC50 was 6.33 µM (active).

Question: And the EC50 [14]?
Answer: Its EC50 is 11 µM (active).

Question: Which IC50 [1] does the source give for `O=C(Cn1ncc2c3ccccc3n(Cc3ccccc3)c2c1=O)NCCN1CCOCC1` here?
Answer: The IC50 was 11.2 µM (active).
